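Growth conditions: 96-well plates. Treatment: test compound, 48 hours, 5 concentrations. Analysis: linear interpolation between bracketing concentrations; unreached endpoints set to highest concentration. The concentration for 50% growth inhibition is given as GI50.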 The source made the active and inactive calls. No stated cut-off is given here; in the data, active = GI50 up to about 1.1 µM and inactive = higher. Where a SMILES comes first, the peptide text is derived from it.
Assays:
Test in all cases: NCI-60 cell line screen, 48 h
BT-549 = tested on: BT-549
HCT-116 = tested on: HCT-116
HL-60 = tested on: HL-60
HOP-62 = tested on: HOP-62
HOP-92 = tested on: HOP-92
IGROV-1 = tested on: IGROV-1
LOX IMVI = tested on: LOX IMVI
MDA-MB-435 = tested on: MDA-MB-435
NCI-H23 = tested on: NCI-H23
NCI-H460 = tested on: NCI-H460
NCI-H522 = tested on: NCI-H522
OVCAR-4 = tested on: OVCAR-4
PC-3 = tested on: PC-3
RPMI-8226 = tested on: RPMI-8226
SF-268 = tested on: SF-268
SF-295 = tested on: SF-295
SK-MEL-5 = tested on: SK-MEL-5
SR = tested on: SR
UO-31 = tested on: UO-31
SK-MEL-2 = tested on: SK-MEL-2

Structure (SMILES) | GI50 (BT-549) | GI50 (HCT-116) | GI50 (HL-60) | GI50 (HOP-62) | GI50 (HOP-92) | GI50 (IGROV-1) | GI50 (LOX IMVI) | GI50 (MDA-MB-435) | GI50 (NCI-H23) | GI50 (NCI-H460) | GI50 (NCI-H522) | GI50 (OVCAR-4) | GI50 (PC-3) | GI50 (RPMI-8226) | GI50 (SF-268) | GI50 (SF-295) | GI50 (SK-MEL-5) | GI50 (SR) | GI50 (UO-31) | GI50 (SK-MEL-2)
CCc1c(Cl)nc(Cl)nc1Cl | 0.0199 µM (active) | 0.0885 µM (active) | 0.206 µM (active) | 2.09 µM (inactive) | 0.565 µM (active) | 0.542 µM (active) | 0.0199 µM (active) | 0.0834 µM (active) | 0.321 µM (active) | 1.93 µM (inactive) | 0.0132 µM (active) | 0.867 µM (active) | 0.698 µM (active) | 0.049 µM (active) | 0.217 µM (active) | 2.05 µM (inactive) | 0.224 µM (active) | 0.0188 µM (active) | 1.38 µM (inactive) | 
CC(C)CC(NC(=O)C(Cc1ccccc1)NC(=O)C(Cc1c[nH]c2ccccc12)NC(=O)CNC(=O)C(N)Cc1ccc(O)cc1)C(=O)O (stereo not given) (H-YGWFL-OH; configuration not given here) | > 100 µM (inactive) | 27.4 µM (inactive) | 24.3 µM (inactive) | 46.5 µM (inactive) | 14 µM (inactive) | 58.7 µM (inactive) |  | 34.9 µM (inactive) | 30.1 µM (inactive) | 44.4 µM (inactive) | 34 µM (inactive) | 30.2 µM (inactive) | 44.7 µM (inactive) | 24.5 µM (inactive) | 47.3 µM (inactive) | 49.7 µM (inactive) | 29 µM (inactive) | 32.4 µM (inactive) | 81.3 µM (inactive) | 81.3 µM (inactive)
CC(C)C(/C=C/c1ccc(Cl)c(Cl)c1)=N\NC(=O)N/N=C(/C=C/c1ccc(Cl)c(Cl)c1)C(C)C | > 100 µM (inactive) |  | 80 µM (inactive) | > 100 µM (inactive) | > 100 µM (inactive) | > 100 µM (inactive) | > 100 µM (inactive) | > 100 µM (inactive) | > 100 µM (inactive) | > 100 µM (inactive) | > 100 µM (inactive) | > 100 µM (inactive) | > 100 µM (inactive) | > 100 µM (inactive) | > 100 µM (inactive) | > 100 µM (inactive) | > 100 µM (inactive) | 86.1 µM (inactive) | > 100 µM (inactive) | 
CC(=O)C(=NNc1ccc(-n2c(C)nc3ccc(Br)cc3c2=O)cc1)C(C)=O | > 100 µM (inactive) | 88.3 µM (inactive) | > 100 µM (inactive) | 35.8 µM (inactive) | 74.3 µM (inactive) | > 100 µM (inactive) | > 100 µM (inactive) | > 100 µM (inactive) | 70.8 µM (inactive) | > 100 µM (inactive) |  |  | 73.8 µM (inactive) | 50.4 µM (inactive) | 56.4 µM (inactive) | 98.6 µM (inactive) | 65.6 µM (inactive) | > 100 µM (inactive) | > 100 µM (inactive) | > 100 µM (inactive)
CC1(C)OCC2(CO1)CSCCCSCC1(COC(C)(C)OC1)CSCCCSC2 | > 100 µM (inactive) | > 100 µM (inactive) | > 100 µM (inactive) | > 100 µM (inactive) | > 100 µM (inactive) | > 100 µM (inactive) | > 100 µM (inactive) | > 100 µM (inactive) | > 100 µM (inactive) | > 100 µM (inactive) | > 100 µM (inactive) | > 100 µM (inactive) | > 100 µM (inactive) | > 100 µM (inactive) | > 100 µM (inactive) | > 100 µM (inactive) | > 100 µM (inactive) | > 100 µM (inactive) | > 100 µM (inactive) | 
Nc1nc(N)c2nnn(C[C@H]3CC[C@@H](CO)C3)c2n1 | > 100 µM (inactive) | > 100 µM (inactive) | > 100 µM (inactive) | > 100 µM (inactive) | > 100 µM (inactive) | 54.7 µM (inactive) | > 100 µM (inactive) | > 100 µM (inactive) | > 100 µM (inactive) | > 100 µM (inactive) | > 100 µM (inactive) |  | > 100 µM (inactive) | > 100 µM (inactive) | > 100 µM (inactive) | > 100 µM (inactive) |  | > 100 µM (inactive) | > 100 µM (inactive) | 
